Among the data in ChEMBL document CHEMBL1201862, “PubChem BioAssay data set” (2004) are EC50, AC50 and IC50 values, retold here.

Molecules are shown by their SMILES. Active and inactive are the calls of the source. A value given as a limit tells only on which side of the number the result lay.

The nature of experiment [1]: fluconazole-exposed Candida albicans growth modulators – fluorescence, retest, confirmation (AID 2467). In kind it is functional, cell-based.
The nature of experiment [2]: NIH-3T3 fibroblast cytotoxicity, dose response, cytotoxicity control, cell-based, fluorescence, Alamar Blue, secondary assay (AID 2327).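 Further: NIH-3T3 mouse fibroblasts cultured with fluconazole at 8 µg/mL.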 Type of experiment: functional. (In general: Alamar Blue is a resazurin reagent that responds to reducing activity.)
The nature of experiment [3]: growth inhibition of PfATP4-mutant resistant parasites – NITD609-resistant line, SYBR Green, dry powder, dose response (AID 1159571).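 Further: parasites synchronized at ring stage by sorbitol before testing.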 In kind it is functional, cell-based.
The nature of experiment [4]: Dd2 malaria parasite growth inhibition potency – SYBR Green, dry powder samples, dose response (AID 1159566).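 Further: potency for growth inhibition with lower SYBR green DNA signal.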 Type of experiment: functional, cell-based.
Experiment [5] in a line: growth inhibition of yeast DHODH-expressing 3D7 parasites – SYBR Green, dry powder samples, dose response (AID 1159570).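 Further: parasite growth measured after 72 hours of compound exposure.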 In kind it is functional, cell-based.
A short description of experiment [6]: P. falciparum Dd2 growth inhibitors, dose response, SYBR Green, cherry-picked samples (AID 1159567). Type of experiment: functional, cell-based.
Experiment [7] addresses T1, Carboxy-terminal domain RNA polymerase II polypeptide A small phosphatase 1 (Homo sapiens, UniProt Q9GZU7).
T1 sequence (Q9GZU7 whole entry): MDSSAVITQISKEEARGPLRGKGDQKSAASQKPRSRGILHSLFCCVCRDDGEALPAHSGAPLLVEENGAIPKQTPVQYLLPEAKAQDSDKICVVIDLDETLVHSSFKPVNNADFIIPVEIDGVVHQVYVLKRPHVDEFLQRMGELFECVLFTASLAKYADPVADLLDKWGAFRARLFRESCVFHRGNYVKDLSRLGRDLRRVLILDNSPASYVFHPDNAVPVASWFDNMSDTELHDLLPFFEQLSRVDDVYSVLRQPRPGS
Description: CTDSP1 inhibitors, concentration-response, biochemical, absorbance readout, ultra-high-throughput screen actives (AID 540297). In kind it is functional.

Experiment [8] is described as follows: alpha-synuclein stem-loop luciferase translation blockers – H4 neuroglioma cells, luminescence, confirmation (AID 1988). Type of experiment: functional, cell-based.
The nature of experiment [9]: Luminescence Cell-Based Dose Response HTS to Identify Inhibitors of 5'UTR Stem-Loop Driven Prion Protein mRNA Translation in H4 Neuroglioblastoma Cells. [Related pubchem assays: 1827 (Project Summary), 1813 (Primary HTS)]. In kind it is functional.
Experiment [10] is described as follows: luciferase reporter signal suppression in cells – H4 neuroglioma cells, luminescence, dose response (AID 1990). Type of experiment: functional, cell-based. In general terms: Reporter assays use an easily measured gene product as a stand-in for the process of interest.
Experiment [11] in a line: HIV-1 AD8 envelope cell-cell fusion blockers – cherry-pick, dose response (AID 652062).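 Further: luciferase signal from cell-cell fusion driven by HIV-1 clade B AD8 Env; potency is for inhibitors of fusion seen as a drop in luminescence.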 In kind it is functional, cell-based.
The target of experiment [12] is T2, Heat shock factor protein 1 (Mus musculus, UniProt P38532).
T2 sequence (P38532 whole entry): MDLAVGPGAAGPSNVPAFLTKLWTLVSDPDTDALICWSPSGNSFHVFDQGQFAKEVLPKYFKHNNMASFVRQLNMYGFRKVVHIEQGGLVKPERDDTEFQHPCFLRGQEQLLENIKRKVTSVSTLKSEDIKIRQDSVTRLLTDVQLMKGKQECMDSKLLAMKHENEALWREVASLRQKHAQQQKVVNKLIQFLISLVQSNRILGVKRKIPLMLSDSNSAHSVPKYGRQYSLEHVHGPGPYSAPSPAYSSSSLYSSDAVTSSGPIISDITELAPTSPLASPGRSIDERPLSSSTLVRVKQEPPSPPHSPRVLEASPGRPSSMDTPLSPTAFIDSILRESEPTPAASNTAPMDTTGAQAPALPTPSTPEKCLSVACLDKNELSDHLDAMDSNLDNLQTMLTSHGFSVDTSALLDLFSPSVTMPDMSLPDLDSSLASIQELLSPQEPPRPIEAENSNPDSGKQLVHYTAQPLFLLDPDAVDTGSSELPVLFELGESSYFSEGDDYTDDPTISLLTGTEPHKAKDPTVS
Description: enhancement of HSF1-driven luciferase signal – cell-based, NIH3T3, luminescence, dose retest, confirmation (AID 435004).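 Further: stress induced by proteasome inhibitor MG132 added 30 min after compound; luciferase reporter driven by HSF1 response element in NIH3T3 cells; actives raise luminescence as potentiators of the MG132 stress response.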 Type of experiment: functional.

In the case of `CCCCn1c(=O)[nH]c(=O)c2c1nc(-c1ccc(-c3ccccc3Br)o1)n2CC`, the EC50 (usually the concentration at which the effect is half-maximal) in experiment [1] is > 38 µM (not active); in [2], > 150 µM (inconclusive).
With `CN1c2ccc(C#Cc3cccnc3)cc2[C@H]2[C@H](CCN2S(=O)(=O)c2ccc(F)cc2)[C@H]1CO`, the AC50 (usually the midpoint of the concentration-response curve, whichever way the signal moves) in experiment [3] is 1.16 µM (active); in experiment [4] it was 1.05 µM (active); in experiment [5], 1.33 µM (active); in [6] it was 1.7 µM (active).
`N#Cc1ccc(OCC(=O)Nc2cccc(S(=O)(=O)NC3=NCCCCC3)c2)cc1`: the IC50 (as a rule, the concentration that gives 50% inhibition) in [7] was 11.6 µM (active).
As to `CC(=O)Nc1ccc(N2CC(C)(C)C2=O)cc1`, the EC50 in experiment [1] was > 38 µM (not active); in experiment [2] it was 38.4 µM (active).
Take `COc1cccc2sc(NNC(=O)c3nc4ccccc4s3)nc12`: the EC50 in [8] was > 120 µM (not active); in experiment [9] it was 16.5 µM (active); in experiment [10], > 120 µM (not active).
As for `Cc1c(Cl)ccc(S(=O)(=O)Nc2cccnc2)c1Cl`, the EC50 in [1] was > 38 µM (not active); in [2], > 150 µM (inactive).
The matching figures for `O=C(C[N+]12CCC(CC1)C(C(O)(c1ccccc1)c1ccccc1)C2)c1ccc(Br)cc1` (stereo unspecified): 1.45 µM (active) and > 160 µM (inconclusive).
`COc1ccc(NC(=O)N2CC3(C2)CN(C(=O)C2CCC2)[C@H](CO)c2c3c3ccc(OC)cc3n2C)cc1`: the AC50 in experiment [3] was 0.372 µM (active); in experiment [4], 0.437 µM (active); in experiment [5] it was 0.22 µM (active); in experiment [6], 2.21 µM (active).
On to `CCc1ccc(-c2csc3ncn(Cc4ccc(C(=O)O)cc4)c(=O)c23)cc1`, for which the EC50 in experiment [1] was > 38 µM (not active); in experiment [2], > 150 µM (inconclusive).
Take `CC1CCN(c2ccc(S(=O)(=O)Nc3cc(C(=O)O)cc(C(=O)O)c3)cc2[N+](=O)[O-])CC1`: the IC50 in experiment [7] is 9.99 µM (active).
On to `CCN(CC)CCN(C(=O)c1cc2c(ccc3ccccc32)oc1=O)c1nc2cc3c(cc2s1)OCCO3`, for which the half-maximal effective concentration (EC50) in experiment [8] was 9.65 µM (active); in experiment [9], > 120 µM (inconclusive); in experiment [10] it was > 120 µM (not active).
Regarding `CC(C)(C)[S@@+]([O-])N1Cc2cc(C(=O)N[C@@H]3CCN(Cc4ccccc4)C3)nc(-c3cccc(-c4cccnc4)c3)c2[C@H]1CCO`, the AC50 was 2.58 µM (active) in experiment [3], 2.01 µM (active) in experiment [4], 3.42 µM (active) in experiment [5] and 1.94 µM (active) in experiment [6].
Turning to `Cc1cc(C(=O)COC(=O)c2cc(Cl)c(O)c(Cl)c2)c(C)n1C`, the IC50 in experiment [7] was 11.5 µM (active).
As for `CCCCCCNC(=O)CCNS(=O)(=O)c1ccc(C)cc1`, the EC50 in [8], in [9] and in [10] was > 120 µM (not active) each time.
For the compound `CCCNC(=O)C[C@@H]1C[C@H]2c3cc(NC(=O)Cc4ccncc4)ccc3O[C@H]2[C@H](CO)O1`, the AC50 in experiment [11] is 39.4 µM (active).
Consider `Cc1cc(C)n(CC(C)NC(=O)c2cc(COc3c(F)cccc3F)on2)n1` (stereo unspecified), for which the EC50 in experiment [8], in [9] and in experiment [10] was > 120 µM (not active) throughout.
In the case of `Nc1ccc(Sc2ccc([N+](=O)[O-])cc2)cc1`, the values for the EC50 in experiment [1] and in [2] were > 38 µM (not active) and > 160 µM (inactive), respectively.
For the compound `CC[N+]1(CC(O)COC2CC(C)CC(C)(C)C2)CCOCC1` (stereo unspecified), the IC50 in experiment [7] was 11.3 µM (active).
On to `O=C(N/N=C/c1ccncc1)c1cc2ccccc2cc1O`, for which the EC50 in [12] is 106 µM (active); in [1] it was > 38 µM (not active); in [2] it was > 150 µM (inactive).
Consider `CCOC(=O)/C=C1\CN(CCC(C)C)S(=O)(=O)c2ccccc21`, for which the IC50 in [7] was 45.3 µM (active).
Regarding `O=C(C[C@@H]1C=C[C@@H](NC(=O)Nc2ccc3c(c2)OCO3)[C@H](CO)O1)NCc1ccc(F)cc1`, in experiment [11], the concentration at half-maximal activity (AC50) was 4.77 µM (active).
